Several values for one entry are separate records, joined by “and”; a condition that tells them apart may be missing. Equal values may be shown once.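 Interpolation was linear, between the two tested concentrations surrounding the appropriate level; five concentrations were tested over 48 hours in 96-well plates. At the GI50, growth is halved. TGI: concentration producing complete growth inhibition.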
How the values were obtained:
Test in all cases: inhibition of tumour cell growth, NCI panel, 48 h
HOP-92 NSCLC = tested on: HOP-92 NSCLC
SK-MEL-2 melanoma = tested on: SK-MEL-2 melanoma
CAKI-1 renal = tested on: CAKI-1 renal
K-562 leukemia = tested on: K-562 leukemia
OVCAR-8 ovarian = tested on: OVCAR-8 ovarian
NCI-H522 lung = tested on: NCI-H522 lung
NCI/ADR-RES ovarian = tested on: NCI/ADR-RES ovarian
M14 melanoma = tested on: M14 melanoma

Row | SMILES | GI50 (HOP-92 NSCLC) | TGI (HOP-92 NSCLC) | GI50 (SK-MEL-2 melanoma) | TGI (SK-MEL-2 melanoma) | GI50 (CAKI-1 renal) | TGI (CAKI-1 renal) | GI50 (K-562 leukemia) | TGI (K-562 leukemia) | GI50 (OVCAR-8 ovarian) | TGI (OVCAR-8 ovarian) | GI50 (NCI-H522 lung) | TGI (NCI-H522 lung) | GI50 (NCI/ADR-RES ovarian) | TGI (NCI/ADR-RES ovarian) | GI50 (M14 melanoma) | TGI (M14 melanoma)
1 | CNCCCNc1nc2ccccc2c2c(=O)c3cc(Cl)ccc3sc12 | 0.935 µM | 2.81 µM | 1.75 µM | 3.43 µM | 1.4 µM | 2.7 µM | – | – | – | – | – | – | – | – | – | –
2 | COc1ccccc1S(=O)(=O)Nc1ccc2c(c1)CN(C)C(=O)N2 | 2.22 µM and 1.18 µM | > 51.9 µM and 71.6 µM | 6.48 µM and 29.5 µM | > 100 µM | 0.994 µM and 3 µM | > 100 µM | 8.64 µM and 5.18 µM | > 100 µM | 10.1 µM and 10.8 µM | > 100 µM | 2.34 µM and 4.75 µM | > 91.7 µM | 29.5 µM and 33.3 µM | > 100 µM | 3.3 µM and 4.08 µM | > 100 µM
3 | CCOC(=O)Nc1ccc(-c2nc(-c3cccc(OC)c3)c(-c3ccnc(Br)c3)[nH]2)cc1 | 2.36 µM | 7.69 µM | 2.58 µM | 6.69 µM | – | – | 2.76 µM | > 100 µM | 2.98 µM | > 100 µM | 2.73 µM | 9.16 µM | 2.35 µM | 7.73 µM | 2.4 µM | 7.5 µM
4 | COC1=Nc2ccccc2S(=O)(=O)C=C1 | 0.742 µM | 15.2 µM | – | 35.8 µM | 0.256 µM | – | – | – | – | 19.5 µM | – | 2.81 µM | – | 36.2 µM | – | 21.4 µM
5 | CN(CCCl)c1ccc(/C=C/C2=[N+](C)c3ccccc3C2(C)C)cc1 | 0.288 µM | 2.2 µM | 1.33 µM | 5.62 µM | 17.5 µM | 43.6 µM | 0.491 µM | 83.5 µM | 0.353 µM | 12 µM | 0.296 µM | 3.89 µM | 65.8 µM | > 100 µM | 1.03 µM | 14.8 µM
6 | O=C(O)C1(Cc2cccc(Nc3nccs3)n2)CCC(Oc2cccc(Cl)c2F)CC1 (stereo not given) | 13 µM | 44.7 µM | 17.6 µM | 36.4 µM | 12.4 µM | 38.8 µM | 0.468 µM | > 56.5 µM | 18.9 µM | > 100 µM | – | – | 3.48 µM | > 65.4 µM | 2.96 µM | 30.2 µM
7 | CNC1C(O)C(OC2C(N)CC(N)C(OC3OC(C(C)O)C(O)C(O)C3N)C2O)OCC1(C)O (stereo not given) | – | – | – | > 100 µM | – | > 100 µM | – | > 100 µM | – | > 100 µM | – | > 100 µM | – | > 100 µM | – | > 100 µM
8 | COc1ccc(C(=O)COc2cccc(/C=C3\CSc4ccc(C)cc4C3=O)c2)cc1 | – | – | 15.9 µM | > 100 µM | 28.7 µM | > 100 µM | 2.17 µM | 6.9 µM | 5.89 µM | > 100 µM | 3.62 µM | 37.2 µM | 3.89 µM | 18.7 µM | 23.6 µM | > 100 µM
9 | COc1ccc(-c2ccc(/C=N/n3c(C)nn(CN4CCN(C)CC4)c3=S)o2)c([N+](=O)[O-])c1 | – | – | – | – | 24.4 µM | > 100 µM | 16.2 µM | 42.4 µM | – | – | 65 µM | > 100 µM | 21.6 µM | 50.5 µM | 42.4 µM | > 100 µM
10 | O=[N+]([O-])c1ccc2ncccc2c1Cl | 6.57 µM | 24.6 µM | 9.21 µM | 30.5 µM | 1.69 µM | 3.45 µM | 0.382 µM | 27.1 µM | 2.96 µM | 8.69 µM | 2.74 µM | 6.59 µM | 3.92 µM | > 100 µM | 3.01 µM | 11.5 µM
11 | CCCCCC/C=C\CCCCCCCCCC1=CC(=O)C=C(OC)C1=O | – | 8.05 µM | – | 18.3 µM | – | 9.65 µM | – | – | – | 12.5 µM | – | 4.58 µM | – | 19.1 µM | – | 16.2 µM
12 | Cn1c(=S)c2[nH]c(SCCN3CCCC3)nc2n(C)c1=O | – | > 100 µM | – | > 100 µM | – | > 100 µM | – | > 100 µM | – | > 100 µM | – | > 100 µM | – | > 100 µM | – | > 100 µM
13 | CCCCn1sc(=O)n(Cc2ccc(CNC(=O)OCc3ccc4c(Br)cc(Br)c(O)c4n3)cc2)c1=O | 1.41 µM | > 100 µM | 1.28 µM | > 100 µM | 0.609 µM | > 100 µM | 0.434 µM | > 100 µM | 0.415 µM | > 81.4 µM | 0.264 µM | – | 0.325 µM | > 100 µM | 0.37 µM | > 100 µM
14 | CCC1CCc2nc3sc(C(=O)Nc4ccccc4C)c(N)c3cc2C1 (stereo not given) | 0.637 µM | > 100 µM | 0.46 µM | > 100 µM | 0.451 µM | > 100 µM | – | – | > 100 µM | > 100 µM | 0.775 µM | > 100 µM | 0.785 µM | > 100 µM | – | –
15 | C#CCOc1cccc(Nc2ncnc3ccc(NC(=O)CCl)cc23)c1 | 2.9 µM | 16.9 µM | 4.07 µM | 24.1 µM | 0.22 µM | 12.7 µM | 0.117 µM | > 100 µM | 0.353 µM | > 65 µM | 0.777 µM | 3.97 µM | 0.817 µM | > 100 µM | 1.07 µM | 18.8 µM
16 | O=[N+]([O-])c1ccc(Sc2c3ccccc3nc3ccccc23)nc1 | – | 6.79 µM | – | 38.8 µM | – | 11.8 µM | – | – | – | > 49.3 µM | – | 8.09 µM | – | 45.7 µM | – | 10.4 µM
17 | CCN1C(=O)N(c2ccccc2)C2NN=c3s/c(=C4\C(=O)N(C(C)C)c5ccccc54)c(=O)n3C21 (stereo not given) | 1.44 µM | > 43.5 µM | 5.99 µM | > 100 µM | 0.661 µM | 8.06 µM | 0.518 µM | > 100 µM | 2.05 µM | > 100 µM | 1.1 µM | > 77.9 µM | 0.702 µM | 3.84 µM | 0.979 µM | > 35.6 µM
18 | O=C1c2c(O)cc(O)cc2OC(c2ccc(O)cc2O)C1O (stereo not given) | > 100 µM | > 100 µM | > 100 µM | > 100 µM | – | > 100 µM | > 100 µM | > 100 µM | > 100 µM | > 100 µM | > 100 µM | > 100 µM | – | – | – | > 100 µM
19 | COc1ccc2c(c1)[n+](=O)c(C(=O)/C=C/c1cc(OC)c(OC)c(OC)c1)c(C)n2[O-] | 12.3 µM | 30.8 µM | 33.7 µM | > 100 µM | 26.9 µM | > 100 µM | > 100 µM | > 100 µM | 6.03 µM | 30.3 µM | 19 µM | 56.6 µM | 32.3 µM | > 100 µM | 23.3 µM | > 100 µM

Source: PubChem BioAssay (NCI)
